Reference: PubChem BioAssay AID1918999 (Molecular Pharmacology Branch, DTP, NCI, 2023)
Several values for one entry are separate records, joined by “and”; a condition that tells them apart may be missing. Identical values can stand only once. Values belong to the compound of their own block, whether it stands above or below them.

Test system: 556581-035-R-J1-PDC complex spheroid growth
Experiment: Anticancer human tumor 556581-035-R-J1-PDC patient-derived ovarian carcinoma cell line growth inhibition [AhR]
Details: for viability, T/C: stronger effect = lower value
How it was run: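 Agents were dosed in half-log steps down from roughly clinical Cmax, or from 10 microM where Cmax was unknown, alone and with AhR antagonists. Read-out: percent test/control growth of tumor spheroids containing HUVEC and MSC stromal cells.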

[1] = curve of first compound, second compound 0.1 µM
[2] = curve of first compound, second compound 0.316 µM
[3] = curve of first compound, second compound 1 µM
[4] = curve of first compound, second compound 3.16 µM
[5] = curve of first compound, second compound 10 µM
[6] = second compound 0.1 µM, first compound 0.0316 µM
[7] = second compound 0.1 µM, first compound 0.1 µM
[8] = second compound 0.1 µM, first compound 0.316 µM
[9] = second compound 0.1 µM, first compound 1 µM
[10] = second compound 0.316 µM, first compound 0.0316 µM
[11] = second compound 0.316 µM, first compound 0.1 µM
[12] = second compound 0.316 µM, first compound 0.316 µM
[13] = second compound 0.316 µM, first compound 1 µM
[14] = second compound 1 µM, first compound 0.0316 µM
[15] = second compound 1 µM, first compound 0.1 µM
[16] = second compound 1 µM, first compound 0.316 µM
[17] = second compound 1 µM, first compound 1 µM
[18] = second compound 3.16 µM, first compound 0.0316 µM
[19] = second compound 3.16 µM, first compound 0.1 µM
[20] = second compound 3.16 µM, first compound 0.316 µM
[21] = second compound 3.16 µM, first compound 1 µM
[22] = second compound 10 µM, first compound 0.0316 µM
[23] = second compound 10 µM, first compound 0.1 µM
[24] = second compound 10 µM, first compound 0.316 µM
[25] = second compound 10 µM, first compound 1 µM
[26] = second compound 0.1 µM, first compound 0.00316 µM
[27] = second compound 0.1 µM, first compound 0.01 µM
[28] = second compound 0.316 µM, first compound 0.00316 µM
[29] = second compound 0.316 µM, first compound 0.01 µM
[30] = second compound 1 µM, first compound 0.00316 µM
[31] = second compound 1 µM, first compound 0.01 µM
[32] = second compound 3.16 µM, first compound 0.00316 µM
[33] = second compound 3.16 µM, first compound 0.01 µM
[34] = second compound 10 µM, first compound 0.00316 µM
[35] = second compound 10 µM, first compound 0.01 µM
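Throughout, for viability, T/C: compound exposure lasted 7 days; 100% = DMSO vehicle control growth.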

SMILES: CCN(c1cc(-c2ccc(CN3CCOCC3)cc2)cc(C(=O)NCc2c(C)cc(C)[nH]c2=O)c1C)C1CCOCC1 + Cc1ccccc1N=Nc1ccc(NC(=O)c2ccnn2C)c(C)c1
- IC50 [1]: > 3000 nM
- IC50 [2]: > 3000 nM
- IC50 [3]: > 3000 nM
- IC50 [4]: > 3000 nM
- IC50 [5]: > 3000 nM
- viability, T/C (second compound 0.1 µM, first compound 0.00949 µM): 92%
- viability, T/C (second compound 0.1 µM, first compound 0.03 µM): 97%
- viability, T/C (second compound 0.1 µM, first compound 0.0949 µM): 85.8%
- viability, T/C (second compound 0.1 µM, first compound 0.3 µM): 91.5%
- viability, T/C (second compound 0.1 µM, first compound 0.949 µM): 90.9%
- viability, T/C (second compound 0.1 µM, first compound 3 µM): 86.8%
- viability, T/C (second compound 0.316 µM, first compound 0.00949 µM): 95.2%
- viability, T/C (second compound 0.316 µM, first compound 0.03 µM): 98.2%
- viability, T/C (second compound 0.316 µM, first compound 0.0949 µM): 88.9%
- viability, T/C (second compound 0.316 µM, first compound 0.3 µM): 85.4%
- viability, T/C (second compound 0.316 µM, first compound 0.949 µM): 86.2%
- viability, T/C (second compound 0.316 µM, first compound 3 µM): 81.1%
- viability, T/C (second compound 1 µM, first compound 0.00949 µM): 81.4%
- viability, T/C (second compound 1 µM, first compound 0.03 µM): 85.6%
- viability, T/C (second compound 1 µM, first compound 0.0949 µM): 88.4%
- viability, T/C (second compound 1 µM, first compound 0.3 µM): 82.6%
- viability, T/C (second compound 1 µM, first compound 0.949 µM): 82.4%
- viability, T/C (second compound 1 µM, first compound 3 µM): 89.1%
- viability, T/C (second compound 3.16 µM, first compound 0.00949 µM): 84.5%
- viability, T/C (second compound 3.16 µM, first compound 0.03 µM): 88.1%
- viability, T/C (second compound 3.16 µM, first compound 0.0949 µM): 87.6%
- viability, T/C (second compound 3.16 µM, first compound 0.3 µM): 73.9%
- viability, T/C (second compound 3.16 µM, first compound 0.949 µM): 91.8%
- viability, T/C (second compound 3.16 µM, first compound 3 µM): 78%
- viability, T/C (second compound 10 µM, first compound 0.00949 µM): 74.9%
- viability, T/C (second compound 10 µM, first compound 0.03 µM): 90.3%
- viability, T/C (second compound 10 µM, first compound 0.0949 µM): 83.8%
- viability, T/C (second compound 10 µM, first compound 0.3 µM): 79%
- viability, T/C (second compound 10 µM, first compound 0.949 µM): 77%
- viability, T/C (second compound 10 µM, first compound 3 µM): 73.4%

SMILES: CC1COCCN1c1cc(C2(S(C)(=N)=O)CC2)nc(-c2ccnc3[nH]ccc23)n1 (centres undefined) + Cc1ccccc1N=Nc1ccc(NC(=O)c2ccnn2C)c(C)c1
- IC50 [1]: > 10000 nM
- IC50 [2]: > 10000 nM
- IC50 [3]: > 10000 nM
- IC50 [4]: > 10000 nM
- IC50 [5]: > 10000 nM
- viability, T/C [6]: 100%
- viability, T/C [7]: 99.5%
- viability, T/C [8]: 96.6%
- viability, T/C [9]: 92.1%
- viability, T/C (second compound 0.1 µM, first compound 3.16 µM): 78.4%
- viability, T/C (second compound 0.1 µM, first compound 10 µM): 59%
- viability, T/C [10]: 98.8%
- viability, T/C [11]: 99.2%
- viability, T/C [12]: 96.7%
- viability, T/C [13]: 92%
- viability, T/C (second compound 0.316 µM, first compound 3.16 µM): 80.1%
- viability, T/C (second compound 0.316 µM, first compound 10 µM): 58.3%
- viability, T/C [14]: 100%
- viability, T/C [15]: 100%
- viability, T/C [16]: 98.6%
- viability, T/C [17]: 93.9%
- viability, T/C (second compound 1 µM, first compound 3.16 µM): 78.4%
- viability, T/C (second compound 1 µM, first compound 10 µM): 60%
- viability, T/C [18]: 95.1%
- viability, T/C [19]: 98.1%
- viability, T/C [20]: 95.4%
- viability, T/C [21]: 88%
- viability, T/C (second compound 3.16 µM, first compound 3.16 µM): 73.9%
- viability, T/C (second compound 3.16 µM, first compound 10 µM): 58.8%
- viability, T/C [22]: 96.1%
- viability, T/C [23]: 97.2%
- viability, T/C [24]: 93%
- viability, T/C [25]: 85.2%
- viability, T/C (second compound 10 µM, first compound 3.16 µM): 74.5%
- viability, T/C (second compound 10 µM, first compound 10 µM): 60.8%

SMILES: Cn1ncnc1C1c2n[nH]c(=O)c3cc(F)cc(c23)NC1c1ccc(F)cc1 (centres undefined) + CC(CO)NC(=O)c1cc(-c2ccc(Cl)cc2)nn(-c2cnn(C)c2)c1=O
- IC50 [1]: > 100 nM
- IC50 [2]: > 100 nM
- IC50 [3]: > 100 nM
- IC50 [4]: > 100 nM
- IC50 [5]: > 100 nM
- viability, T/C (second compound 0.1 µM, first compound 0.000316 µM): 109%
- viability, T/C (second compound 0.1 µM, first compound 0.001 µM): 104%
- viability, T/C [26]: 101%
- viability, T/C [27]: 103%
- viability, T/C [6]: 97.3%
- viability, T/C [7]: 99.7%
- viability, T/C (second compound 0.316 µM, first compound 0.000316 µM): 97%
- viability, T/C (second compound 0.316 µM, first compound 0.001 µM): 111%
- viability, T/C [28]: 137%
- viability, T/C [29]: 113%
- viability, T/C [10]: 99.3%
- viability, T/C [11]: 93.4%
- viability, T/C (second compound 1 µM, first compound 0.000316 µM): 112%
- viability, T/C (second compound 1 µM, first compound 0.001 µM): 105%
- viability, T/C [30]: 113%
- viability, T/C [31]: 105%
- viability, T/C [14]: 98.7%
- viability, T/C [15]: 99.6%
- viability, T/C (second compound 3.16 µM, first compound 0.000316 µM): 114%
- viability, T/C (second compound 3.16 µM, first compound 0.001 µM): 110%
- viability, T/C [32]: 105%
- viability, T/C [33]: 93.3%
- viability, T/C [18]: 101%
- viability, T/C [19]: 89.6%
- viability, T/C (second compound 10 µM, first compound 0.000316 µM): 105%
- viability, T/C (second compound 10 µM, first compound 0.001 µM): 110%
- viability, T/C [34]: 110%
- viability, T/C [35]: 112%
- viability, T/C [22]: 92.6%
- viability, T/C [23]: 97.2%

Now from value to compound, other results behind:

- IC50 (curve of compound): 388 nM and 386 nM and 366 nM
SMILES: COc1cccc2c1C(=O)c1c(O)c3c(c(O)c1C2=O)CC(O)(C(=O)CO)CC3OC1CC(N)C(O)C(C)O1 (centres undefined)
- viability, T/C (compound 0.0316 µM): 90.7% and 86.7% and 84.5%
- viability, T/C (compound 0.1 µM): 89% and 78.2% and 76.5%
- viability, T/C (compound 0.316 µM): 58.8% and 57.2% and 55%
- viability, T/C (compound 1 µM): 9.14% and 19.1% and 19.5%
- viability, T/C (compound 3.16 µM): 1.93% and 3.75% and 4.65%
- viability, T/C (compound 10 µM): 3.8% and 2.01% and 3.67%

- IC50 (curve of compound): > 10000 nM
SMILES: NS(=O)(=O)OCC1CC(n2ccc3c(NC4CCc5ccccc54)ncnc32)CC1O (centres undefined)
- viability, T/C (compound 0.0316 µM): 100% and 99.4% and 89%
- viability, T/C (compound 0.1 µM): 109% and 118% and 98.8%
- viability, T/C (compound 0.316 µM): 100% and 104% and 111%
- viability, T/C (compound 1 µM): 90% and 108% and 103%
- viability, T/C (compound 3.16 µM): 88% and 106% and 113%
- viability, T/C (compound 10 µM): 73.4% and 86.2% and 81.5%

- IC50 [1]: > 1000 nM
- IC50 [2]: > 1000 nM
- IC50 [3]: > 1000 nM
- IC50 [4]: > 1000 nM
- IC50 [5]: > 1000 nM
SMILES: Nc1ncn(C2CC(O)C(CO)O2)c(=O)n1 (centres undefined) + Cc1ccccc1N=Nc1ccc(NC(=O)c2ccnn2C)c(C)c1
- viability, T/C [26]: 95.9%
- viability, T/C [27]: 95.5%
- viability, T/C [6]: 90.4%
- viability, T/C [7]: 84.7%
- viability, T/C [8]: 85.1%
- viability, T/C [9]: 77.4%
- viability, T/C [28]: 108%
- viability, T/C [29]: 98.8%
- viability, T/C [10]: 85.9%
- viability, T/C [11]: 89.6%
- viability, T/C [12]: 78.7%
- viability, T/C [13]: 74.1%
- viability, T/C [30]: 98.5%
- viability, T/C [31]: 97.7%
- viability, T/C [14]: 95.1%
- viability, T/C [15]: 92.3%
- viability, T/C [16]: 89.2%
- viability, T/C [17]: 78.1%
- viability, T/C [32]: 86.7%
- viability, T/C [33]: 81.6%
- viability, T/C [18]: 81%
- viability, T/C [19]: 79.6%
- viability, T/C [20]: 73%
- viability, T/C [21]: 82.8%
- viability, T/C [34]: 85.4%
- viability, T/C [35]: 77.9%
- viability, T/C [22]: 71.2%
- viability, T/C [23]: 72.4%
- viability, T/C [24]: 77.6%
- viability, T/C [25]: 75.3%
